Patent US11766425B2, “Antibiotic combination therapies” (BIOVERSYS AG, priority 2019, dated 2023)
Read-outs that look alike come from different tables or passages of the source. Bridge positions count the residues as written; N and C are the ends. Square brackets hold non-standard residues; d marks the D form. Peptide text beside a SMILES is read from it. Dab = NCC[C@H](N)C(=O)O

Columns and labels:
Format in all cases: cell-based, Acinetobacter baumannii
[1] = test system: panel of MDR clinical isolates of A. baumannii
Description: (§1) Checkerboards were performed according to the CLSI parameters used for microbroth dilution MIC5. CA-MHB, iron-depleted CA-MHB (ID-CA-MHB) or RPMI supplemented with 10% FCS medium were used as specified and ID-CA-MHB was prepared according to CLSI guidelines. […] FICI is calculated as follows: […]

[2] = test system: A. baumannii LAC-4 strain; test: broth microdilution checkerboard MIC/synergy; details: for MICs alone: antibiotic alone
Description: as §1
The checkerboards were performed in CA-MHB or ID-CA-MHB for cefiderocol.

[3] = test system: A. baumannii UNT087-1; test: broth microdilution checkerboard MIC/synergy; details: strain UNT087-1; for MICs alone: antibiotic alone
Description: as §1

[4] = test system: A. baumannii UNT091-1; test: broth microdilution checkerboard MIC/synergy; details: strain UNT091-1; for MICs alone: antibiotic alone
Description: as §1

[5] = test system: A. baumannii IHMA867231; test: broth microdilution checkerboard MIC/synergy; details: strain IHMA867231; for MICs alone: antibiotic alone
Description: as §1

[6] = test system: A. baumannii UNT239-1; test: broth microdilution checkerboard MIC/synergy; details: strain UNT239-1; for MICs alone: antibiotic alone
Description: as §1

[7] = test system: A. baumannii 401255-18; test: broth microdilution checkerboard MIC/synergy; details: strain 401255-18; for MICs alone: antibiotic alone
Description: as §1

[8] = test system: A. baumannii IHMA1013816; test: broth microdilution checkerboard MIC/synergy; details: strain IHMA1013816; for MICs alone: antibiotic alone
Description: as §1

[9] = test system: A. baumannii 402608-17; test: broth microdilution checkerboard MIC/synergy; details: strain 402608-17; for MICs alone: antibiotic alone
Description: as §1

[10] = test system: A. baumannii IHMA690517; test: broth microdilution checkerboard MIC/synergy; details: strain IHMA690517; for MICs alone: antibiotic alone
Description: as §1

[11] = test system: A. baumannii UNT191-1; test: broth microdilution checkerboard MIC/synergy; details: strain UNT191-1; for MICs alone: antibiotic alone
Description: as §1

[12] = test system: A. baumannii UNT238-1; test: broth microdilution checkerboard MIC/synergy; details: strain UNT238-1; for MICs alone: antibiotic alone
Description: as §1

[13] = test system: A. baumannii ACC00535; test: broth microdilution checkerboard MIC/synergy; details: strain ACC00535; rifabutin/SPR741 in combination
Description: as §1

[14] = test system: A. baumannii IHMA919656; test: broth microdilution checkerboard MIC/synergy; details: strain IHMA919656; for MICs alone: antibiotic alone
Description: as §1

[15] = test system: A. baumannii 401046-18; test: broth microdilution checkerboard MIC/synergy; details: strain 401046-18; for MICs alone: antibiotic alone
Description: as §1

[16] = test system: A. baumannii IHMA863866; test: broth microdilution checkerboard MIC/synergy; details: strain IHMA863866; for MICs alone: antibiotic alone
Description: as §1

[17] = test system: A. baumannii 402292-17; test: broth microdilution checkerboard MIC/synergy; details: strain 402292-17; for MICs alone: antibiotic alone
Description: as §1

[18] = test system: A. baumannii HUMC1; test: broth microdilution checkerboard MIC/synergy; details: strain HUMC1; for MICs alone: antibiotic alone
Description: as §1

[19] = rifabutin/SPR741 in combination
[20] = second antibiotic in combination with rifabutin, LAC-4, CA-MHB
[21] = rifabutin/colistin checkerboard, CA-MHB
[22] = rifampicin/colistin checkerboard
[23] = rifabutin/colistin in combination, CA-MHB
[24] = rifampicin/colistin in combination

## CC(=O)N[C@H](C(=O)N[C@H](CO)C(=O)N[C@H]1CCNC(=O)[C@H]([C@@H](C)O)NC(=O)[C@H](CCN)NC(=O)[C@H](CCN)NC(=O)[C@H](CC(C)C)NC(=O)[C@@H](Cc2ccccc2)NC(=O)[C@H](CCN)NC1=O)[C@@H](C)O [SPR741] (Ac-T[dS][Dab][Dab][dF]L[Dab][Dab]T; lactam 3-C)
[1]; higher than the one of colistin
  SPR741 concentration required to achieve synergy with rifabutin, relative to colistin: at least 8 fold
[1]; rifabutin with SPR741
  strains on which synergy was observed: 88%
[2]; strain LAC-4, rifabutin/SPR741 in combination
  MICs combi / in combination: 4 mg/L
[3]; [19]
  MICs combi / in combination: 8 mg/L
[4]; [19]
  MICs combi / in combination: 2 mg/L
[5]; [19]
  MICs combi / in combination: 32 mg/L
[6]; [19]
  MICs combi / in combination: 4 mg/L
[7]; [19]
  MICs combi / in combination: 4 mg/L
[8]; [19]
  MICs combi / in combination: 16 mg/L
[9]; [19]
  MICs combi / in combination: 16 mg/L
[10]; [19]
  MICs combi / in combination: 16 mg/L
[11]; [19]
  MICs combi / in combination: 4 mg/L
[12]; [19]
  MICs combi / in combination: 4 mg/L
[13]
  MICs combi / in combination: 4 mg/L
[14]; [19]
  MICs combi / in combination: 8 mg/L
[15]; [19]
  MICs combi / in combination: 8 mg/L
[16]; [19]
  MICs combi / in combination: 16 mg/L
[17]; [19]
  MICs combi / in combination: 32 mg/L
[18]; [19]
  MICs combi / in combination: 4 mg/L

## colistin
[1]; in combination with rifabutin, colistin resistant strains, CA-MHB
  reduction of colistin MICs: at least 16 fold
[1]; rifabutin with colistin, CA-MHB, 16 MDR isolates
  strains on which synergy was observed: 100%
[2]; [20]
  FICI: 0.254
  Interpretation: synergy (synergy (FICI≤0.5))
[2]; strain LAC-4, rifabutin/colistin checkerboard, CA-MHB
  MICs alone: 0.5 mg/L
[2]; strain LAC-4, rifampicin/colistin checkerboard
  MICs alone: 0.5 mg/L
[3]; [21]
  MICs alone: 1 mg/L
[3]; [22]
  MICs alone: 0.5 mg/L
[3]; [23]
  MICs combi: 0.25 mg/L
[4]; [21]
  MICs alone: 0.5 mg/L
[4]; [22]
  MICs alone: 0.5 mg/L
[5]; [21]
  MICs alone: 32 mg/L
[5]; [22]
  MICs alone: 32 mg/L
[5]; [23]
  MICs combi: 4 mg/L
[5]; [24]
  MICs combi: 4 mg/L
[6]; [21]
  MICs alone: 1 mg/L
[6]; [22]
  MICs alone: 1 mg/L
[6]; [23]
  MICs combi: 0.25 mg/L
[6]; [24]
  MICs combi: 0.25 mg/L
[7]; [21]
  MICs alone: 0.25 mg/L
[7]; [22]
  MICs alone: 0.25 mg/L
[7]; [23]
  MICs combi: 0.06 mg/L
[7]; [24]
  MICs combi: 0.06 mg/L
[8]; [21]
  MICs alone: 16 mg/L
[8]; [22]
  MICs alone: 32 mg/L
[8]; [23]
  MICs combi: <0.5 mg/L
[8]; [24]
  MICs combi: <0.5 mg/L
[9]; [21]
  MICs alone: 1 mg/L
[9]; [22]
  MICs alone: 1 mg/L
[9]; [23]
  MICs combi: 0.25 mg/L
[9]; [24]
  MICs combi: 0.25 mg/L
[10]; [21]
  MICs alone: 16 mg/L
[10]; [22]
  MICs alone: 16 mg/L
[10]; [23]
  MICs combi: 0.5 mg/L
[10]; [24]
  MICs combi: <0.5 mg/L
[11]; [21]
  MICs alone: 2 mg/L
[11]; [22]
  MICs alone: 1 mg/L
[11]; [23]
  MICs combi: 0.5 mg/L
[11]; [24]
  MICs combi: 0.25 mg/L
[12]; [21]
  MICs alone: 0.25 mg/L
[12]; [22]
  MICs alone: 0.5 mg/L
[12]; [23]
  MICs combi: 0.06 mg/L
[14]; [21]
  MICs alone: 512 mg/L
[14]; [22]
  MICs alone: 512 mg/L
[14]; [23]
  MICs combi: 1 mg/L
[14]; [24]
  MICs combi: 1 mg/L
[15]; [21]
  MICs alone: 0.5 mg/L
[15]; [22]
  MICs alone: 0.25 mg/L
[15]; [24]
  MICs combi: 0.06 mg/L
[16]; [21]
  MICs alone: >512 mg/L
[16]; [22]
  MICs alone: 512 mg/L
[16]; [23]
  MICs combi: 1 mg/L
[16]; [24]
  MICs combi: 0.5 mg/L
[17]; [21]
  MICs alone: 1 mg/L
[17]; [22]
  MICs alone: 0.25 mg/L
[17]; [23]
  MICs combi: 0.25 mg/L
[18]; [21]
  MICs alone: 0.5 mg/L
[18]; [22]
  MICs alone: 0.5 mg/L
